Patent US11647737B2, “Genetically modified rabbit expressing an exogenous protein in milk” (APPLIED STEMCELL, INC., priority 2016, dated 2023)
Read-outs that look alike come from different tables or passages of the source.

Key:
[1] = test system: beta-casein locus in rabbit embryos; experiment: td-Tomato knock-in efficiency at the beta-casein locus in rabbit embryos; assay type: cell-based; details: RS-1 7.5 μM; control 8.3%; P<0.05
Experimental: A mixture containing 100 ng/μl donor DNA, 100 ng/μl Cas9 mRNA and 6 ng/μl sgRNA were used for cytoplasm microinjection. Embryos were subsequently cultured to blastocyst stages, genomic DNA extracted, and subjected to PCR using primer sets described in FIG. 4. Embryos that are positive containing the desired band size for both primer sets LF1/LR1 and RF1/RR1 are considered putative knock-in.

[2] = test system: ROSA26 like locus (RLL) in rabbit embryos; details: for knock-in rate: 20 h, control 4.8%
Experimental: We first tested the effects of SCR7 and RS-1 on Cas9 mediated HDR at a ROSA26 like locus (RLL) in the rabbit genome (FIG. 6). Donor template DNAs were co-microinjected with Cas9 mRNA and sgRNA for RLL locus. After injection, the embryos were treated for 20 h in a serial concentration of SCR7: 0 μM (control), 20 μM, 40 μM, and 80 μM, or in RS-1 at 0 μM (control), 7.5 μM, and 15 μM.

β-casein (rbCSN2) = experiment: In vitro validation of sgRNAs in microinjected rabbit embryos (PCR and sequencing of blastocysts), β-casein; assay type: cell-based; details: 100 ng/μl Cas9 mRNA and 6 ng/μl sgRNA
Experimental: All animal maintenance, care and use procedures were reviewed and approved by the University Committee on the Use and Care of Animals (UCUCA) of the University of Michigan. Embryos were harvested from superovulated embryo donor female rabbits as previously described. Microinjection was performed on embryos 19-21 h post insemination using a micromanipulator under the inverted microscope equipped with a differential interference contrast (DIC) device. A mixture containing 100 ng/μl Cas9 mRNA and 6 ng/μl sgRNA were used for cytoplasmic microinjection. The injected embryos were washed and cultured in vitro for 3-4 days until they reached blastocyst stage.
Blastocyst stage embryos were lysed individually and genomic DNA extracted. To get better PCR reaction, the whole genome was replicated using a REPLI-g® Mini Kit (Qiagen, Germantown, Md.) following the manufacturer's protocol with slight modification. PCR products using primer set LF1/RR1 were purified and sequenced for detection of indel mutations proximate to the sgRNA target sequence (FIG. 4). On the chromatographic curves, peaks on peaks approximate the targeting site indicate an indel event. Mutation Surveyor (Softgenetics, State College, Pa.) was used to analyze sequencing results.
In total, we performed microinjection to 102 pronuclear stage embryos with sgRNA#3 targeting β-casein (rbCSN2) (see Table 1). […]

## O=C(Nc1ccc(Br)cc1)c1ccc(Br)c(S(=O)(=O)NCc2ccccc2)c1 [RS-1]
[1]
  % KI (knock-in rate): 28.9%
[2]; RS-1 7.5 μM
  knock-in rate: 26.1%
[2]; RS-1 15 μM
  knock-in rate: 5.4%

## O=c1[nH]c(=S)[nH]c(N=Cc2ccccc2)c1N=Cc1ccccc1 [SCR7]
[2]; embryos treated 20 h with SCR7 20 μM, 40 μM, 80 μM, control 7.1%
  overall knock-in efficiency: 7.7-9.4%
[2]; embryos treated 20 h with SCR7 20-80 μM vs control
  effect on overall knock-in efficiency: no significant effects

## sgRNA#3: sgRNA targeting rabbit β-Casein intron 1, GGATATCATGTTAGAGTGCCTGG (SEQ ID NO: 1) (listed as DNA, chemistry not given here; the letters are possibly those of the target site)
β-casein (rbCSN2)
  Bi-allelic mutations (%): 36%
β-casein (rbCSN2); 56 blastocysts sequenced
  blastocysts with insertions or deletions at or proximate the targeted cleavage site (#mutated, %): 63%
